The mortality is the percentage killed.

Each structure is given as a SMILES string.

Consider 19 molecules from patent US9617253B2, “Molecules having pesticidal utility, and intermediates, compositions, and processes, related thereto” (Dow AgroSciences LLC, priority 2015, dated 2017).

For assay [1], the system named is Beet Armyworm (Spodoptera exigua, LAPHEG). The assay is described as follows: Bioassay on Beet Armyworm (BAW), 128-well diet tray assay. The conditions noted are these: 168 h, second instar BAW larvae, 50 μg/cm^2 on artificial diet, 25° C., five to seven days, average of eight wells, read-out: BAW % Control (or Mortality) rating. In kind it is in vivo. The method, then: (§1) Certain molecules disclosed in this document were tested against BAW and CL using procedures described in the following examples. In the reporting of the results, the “BAW & CL Rating Table” was used (See Table Section).
Bioassays on BAW were conducted using a 128-well diet tray assay. One to five second instar BAW larvae were placed in each well (3 mL) of the diet tray that had been previously filled with 1 mL of artificial diet to which 50 μg/cm^2 of the test molecule (dissolved in 50 μL of 90:10 acetone-water mixture) had been applied (to each of eight wells) and then allowed to dry. Trays were covered with a clear self-adhesive cover, vented to allow gas exchange, and held at 25° C., 14:10 light-dark for five to seven days. Percent mortality was recorded for the larvae in each well; activity in the eight wells was then averaged. The results are indicated in the table entitled “Table ABC: Biological Results” (See Table Section).

For assay [2], the system named is Cabbage Looper (Trichoplusia ni, TRIPNI). Nature of the assay: Bioassay on Cabbage Looper (CL), 128-well diet tray assay. The assay is classed as in vivo. The settings on record: 168 h, second instar CL larvae, 50 μg/cm^2 on artificial diet, 25° C., five to seven days, average of eight wells, read-out: CL % Control (or Mortality) rating. The method, then: as §1
Bioassays on CL were conducted using a 128-well diet tray assay. One to five second instar CL larvae were placed in each well (3 mL) of the diet tray that had been previously filled with 1 mL of artificial diet to which 50 μg/cm^2 of the test molecule (dissolved in 50 μL of 90:10 acetone-water mixture) had been applied (to each of eight wells) and then allowed to dry. Trays were covered with a clear self-adhesive cover, vented to allow gas exchange, and held at 25° C., 14:10 light-dark for five to seven days. Percent mortality was recorded for the larvae in each well; activity in the eight wells was then averaged. The results are indicated in the table entitled “Table ABC: Biological Results” (See Table Section).

In the case of `Cc1ccc(C(C)C)c(N2C(=O)CS/C2=N\C(=O)Nc2ccc(COc3ncn(-c4ccc(OC(F)(F)F)cc4)n3)cc2)c1` [F1, (Z)-1-(3-(2-isopropyl-5-methylphenyl)-4-oxothiazolidin-2-ylidene)-3-(4-(((1-(4-(trifluoromethoxy)phenyl)-1H-1,2,4-triazol-3-yl)oxy)methyl)phenyl)urea], the mortality at 50 µg/cm2 in assay [1] and in assay [2] was 50 to 100% throughout.

With `Cc1ccc(C(C)C)c(N2C(=O)CS/C2=N\C(=O)Nc2ccc(COc3ncn(-c4ccc(OC(F)(F)F)cc4)n3)cc2F)c1` [F2, (Z)-1-(2-Fluoro-4-(((1-(4-(trifluoromethoxy)phenyl)-1H-1,2,4-triazol-3-yl)oxy)methyl)phenyl)-3-(3-(2-isopropyl-5-methylphenyl)-4-oxothiazolidin-2-ylidene)urea], the mortality at 50 µg/cm2 in assay [1] and in assay [2] was 50 to 100% in each case.

As to `Cc1ccc(C(C)C)c(N2C(=O)CS/C2=N\C(=O)Nc2ccc(COc3ncn(-c4ccc(OC(F)(F)F)cc4)n3)c(F)c2)c1` [F3, (Z)-1-(3-Fluoro-4-(((1-(4-(trifluoromethoxy)phenyl)-1H-1,2,4-triazol-3-yl)oxy)methyl)phenyl)-3-(3-(2-isopropyl-5-methylphenyl)-4-oxothiazolidin-2-ylidene)urea], the mortality at 50 µg/cm2 in assay [1] and in assay [2] was 50 to 100% throughout.

For the molecule `COc1cc(NC(=O)/N=C2\SCC(=O)N2c2cc(C)ccc2C(C)C)ccc1COc1ncn(-c2ccc(OC(F)(F)F)cc2)n1` [F4, (Z)-1-(3-(2-Isopropyl-5-methylphenyl)-4-oxothiazolidin-2-ylidene)-3-(3-methoxy-4-(((1-(4-(trifluoromethoxy)phenyl)-1H-1,2,4-triazol-3-yl)oxy)methyl)phenyl)urea], the mortality at 50 µg/cm2 in assay [1] and in assay [2] was 50 to 100% in each case.

As for `CCCc1ccc(C)cc1N1C(=O)CS/C1=N\C(=O)Nc1ccc(COc2ncn(-c3ccc(OC(F)(F)F)cc3)n2)cc1F` [F6, (Z)-1-(2-Fluoro-4-(((1-(4-(trifluoromethoxy)phenyl)-1H-1,2,4-triazol-3-yl)oxy)methyl)phenyl)-3-(3-(5-methyl-2-propylphenyl)-4-oxothiazolidin-2-ylidene)urea], the mortality at 50 µg/cm2 in assay [1] and in assay [2] was 50 to 100% each time.

Regarding `CCCc1ccc(C)cc1N1C(=O)CS/C1=N\C(=O)Nc1ccc(COc2ncn(-c3ccc(OC(F)(F)F)cc3)n2)c(F)c1` [F7, (Z)-1-(3-Fluoro-4-(((1-(4-(trifluoromethoxy)phenyl)-1H-1,2,4-triazol-3-yl)oxy)methyl)phenyl)-3-(3-(5-methyl-2-propylphenyl)-4-oxothiazolidin-2-ylidene)urea], the mortality at 50 µg/cm2 in assay [1] and in assay [2] was 50 to 100% throughout.

With `CCCc1ccc(C)cc1N1C(=O)CS/C1=N\C(=O)Nc1ccc(COc2ncn(-c3ccc(OC(F)(F)F)cc3)n2)c(OC)c1` [F10, (Z)-1-(3-Methoxy-4-(((1-(4-(trifluoromethoxy)phenyl)-1H-1,2,4-triazol-3-yl)oxy)methyl)phenyl)-3-(3-(5-methyl-2-propylphenyl)-4-oxothiazolidin-2-ylidene)urea], the mortality at 50 µg/cm2 in assay [1] and in assay [2] was 0% in each case.

For `COCc1ccc(C)cc1N1C(=O)CS/C1=N\C(=O)Nc1ccc(COc2ncn(-c3ccc(OC(F)(F)F)cc3)n2)c(OC)c1` [F11, (Z)-1-(3-Methoxy-4-(((1-(4-(trifluoromethoxy)phenyl)-1H-1,2,4-triazol-3-yl)oxy)methyl)phenyl)-3-(3-(2-(methoxymethyl)-5-methylphenyl)-4-oxothiazolidin-2-ylidene)urea], the mortality at 50 µg/cm2 in assay [1] and in assay [2] was 0% in each case.

In the case of `Cc1cc(N2C(=O)CS/C2=N\C(=O)Nc2ccc(COc3ncn(-c4ccc(OC(F)(F)F)cc4)n3)cc2F)c(C(C)C)cc1F` [F12, (Z)-1-(3-(4-Fluoro-2-isopropyl-5-methylphenyl)-4-oxothiazolidin-2-ylidene)-3-(2-fluoro-4-(((1-(4-(trifluoromethoxy)phenyl)-1H-1,2,4-triazol-3-yl)oxy)methyl)phenyl)urea], the mortality at 50 µg/cm2 in assay [1] and in assay [2] was 50 to 100% throughout.

`CCCc1ccc(C)cc1N1C(=O)CS/C1=N\C(=O)Nc1ccc(COc2ncn(-c3ccc(OC(F)(F)F)cc3)n2)cn1` [F13, (Z)-1-(3-(5-Methyl-2-propylphenyl)-4-oxothiazolidin-2-ylidene)-3-(5-(((1-(4-(trifluoromethoxy)phenyl)-1H-1,2,4-triazol-3-yl)oxy)methyl)pyridin-2-yl)urea]: the mortality at 50 µg/cm2 in assay [1] and in assay [2] was 50 to 100% each time.

On to `Cc1ccc(C(C)C)c(N2C(=O)CS/C2=N\C(=O)Nc2ccc(COc3ncn(-c4ccc(OC(F)(F)F)cc4)n3)cn2)c1` [F14, (Z)-1-(3-(2-Isopropyl-5-methylphenyl)-4-oxothiazolidin-2-ylidene)-3-(5-(((1-(4-(trifluoromethoxy)phenyl)-1H-1,2,4-triazol-3-yl)oxy)methyl)pyridin-2-yl)urea], for which the mortality at 50 µg/cm2 in assay [1] and in assay [2] was 50 to 100% in each case.

On to `Cc1ccc(C(C)C)c(N2C(=O)CS/C2=N\C(=O)Nc2ccc(OCc3ncn(-c4ccc(OC(F)(F)F)cc4)n3)cc2)c1` [F15, (Z)-1-(3-(2-Isopropyl-5-methylphenyl)-4-oxothiazolidin-2-ylidene)-3-(4-((1-(4-(trifluoromethoxy)phenyl)-1H-1,2,4-triazol-3-yl)methoxy)phenyl)urea], for which the mortality at 50 µg/cm2 in assay [1] and in assay [2] was 50 to 100% in each case.

`Cc1ccc(C(C)C)c(N2C(=O)CS/C2=N\C(=O)Nc2ccc(OCc3ncn(-c4ccc(OC(F)(F)F)cc4)n3)cc2F)c1` [F16, (Z)-1-(2-Fluoro-4-((1-(4-(trifluoromethoxy)phenyl)-1H-1,2,4-triazol-3-yl)methoxy)phenyl)-3-(3-(2-isopropyl-5-methylphenyl)-4-oxothiazolidin-2-ylidene)urea]: the mortality at 50 µg/cm2 in assay [1] and in assay [2] was 50 to 100% each time.

With `Cc1ccc(C(C)C)c(N2C(=O)CS/C2=N\C(=O)Nc2c(F)cc(OCc3ncn(-c4ccc(OC(F)(F)F)cc4)n3)cc2F)c1` [F18, (Z)-1-(2,6-Difluoro-4-((1-(4-(trifluoromethoxy)phenyl)-1H-1,2,4-triazol-3-yl)methoxy)phenyl)-3-(3-(2-isopropyl-5-methylphenyl)-4-oxothiazolidin-2-ylidene)urea], the mortality at 50 µg/cm2 in assay [1] and in assay [2] was 50 to 100% each time.

With `COCc1ccc(C)cc1N1C(=O)CS/C1=N\C(=O)Nc1c(F)cc(OCc2ncn(-c3ccc(OC(F)(F)F)cc3)n2)cc1F` [F19, (Z)-1-(2,6-Difluoro-4-((1-(4-(trifluoromethoxy)phenyl)-1H-1,2,4-triazol-3-yl)methoxy)phenyl)-3-(3-(2-(methoxymethyl)-5-methylphenyl)-4-oxothiazolidin-2-ylidene)urea], the mortality at 50 µg/cm2 in assay [1] and in assay [2] was 50 to 100% each time.

As for `COC(C)c1ccc(C)cc1N1C(=O)CS/C1=N\C(=O)Nc1ccc(OCc2ncn(-c3ccc(OC(F)(F)F)cc3)n2)cc1F` (centres unmarked) [F20, (Z)-1-(2-Fluoro-4-((1-(4-(trifluoromethoxy)phenyl)-1H-1,2,4-triazol-3-yl)methoxy)phenyl)-3-(3-(2-(1-methoxyethyl)-5-methylphenyl)-4-oxothiazolidin-2-ylidene)urea], the mortality at 50 µg/cm2 in assay [1] and in assay [2] was 50 to 100% each time.

Regarding `CCCc1ccc(C)cc1N1C(=O)CS/C1=N\C(=O)Nc1ccc(OCc2ncn(-c3ccc(OC(F)(F)F)cc3)n2)cc1F` [F23, (Z)-1-(2-Fluoro-4-((1-(4-(trifluoromethoxy)phenyl)-1H-1,2,4-triazol-3-yl)methoxy)phenyl)-3-(3-(5-methyl-2-propylphenyl)-4-oxothiazolidin-2-ylidene)urea], the mortality at 50 µg/cm2 in assay [1] and in assay [2] was 50 to 100% in each case.

With `Cc1ccc(C(C)C)c(N2C(=O)CS/C2=N\C(=O)Nc2ccc(OCc3ncn(-c4ccc(OC(F)(F)F)cc4)n3)cc2C)c1` [F25, (Z)-1-(3-(2-Isopropyl-5-methylphenyl)-4-oxothiazolidin-2-ylidene)-3-(2-methyl-4-((1-(4-(trifluoromethoxy)phenyl)-1H-1,2,4-triazol-3-yl)methoxy)phenyl)urea], the mortality at 50 µg/cm2 in assay [1] and in assay [2] was 50 to 100% each time.

Turning to `CCCc1ccc(C)cc1N1C(=O)CS/C1=N\C(=O)Nc1ccc(OCc2ncn(-c3ccc(OC(F)(F)F)cc3)n2)cc1C` [F26, (Z)-1-(3-(5-Methyl-2-propylphenyl)-4-oxothiazolidin-2-ylidene)-3-(2-methyl-4-((1-(4-(trifluoromethoxy)phenyl)-1H-1,2,4-triazol-3-yl)methoxy)phenyl)urea], the mortality at 50 µg/cm2 in assay [1] and in assay [2] was 50 to 100% throughout.
